The target in one experiment is T1, HCMV polymerase (Human cytomegalovirus, UniProt P08546).
T1 construct: made in house; host or cells: recombinant baculovirus-infected SF-9 insect cells
The experiment is described as follows: biochemical. An outline of the steps: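 Scintillation proximity assay with baculovirus/SF-9-expressed HCMV polymerase, 90 nM ³H-dTTP and 6 nM biotinylated poly(dA)-oligo(dT) in HEPES pH 7.5/KCl/MgCl2/BSA, ±2 mM CHAPS, 25 or 37 °C, 30 min for HCMV. Modified version: compounds diluted in 100% DMSO, 4.5 mM DTT added. IC50 from linear regression.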

For another experiment, the target named is HSV polymerase (Human herpesvirus 1, UniProt P04293). Briefly: HSV polymerase assay (Table 1). It counts as biochemical.
The target in the next experiment is VZV polymerase (Varicella-zoster virus, UniProt P09252). Briefly: VZV polymerase assay (Table 1). It counts as biochemical.
The mark [1] stands for this setting: HCMV polymerase, SPA, modified assay: compounds in 100% DMSO, 4.5 mM DTT.

Among the data in US6248739A, “Quinolinecarboxamides as antiviral agents” (Pharmacia & Upjohn Company, priority 1999, dated 2001) are IC50 values, retold here.

Like-named read-outs stand apart in the source and are kept apart here.

T1 sequence (P08546 whole entry): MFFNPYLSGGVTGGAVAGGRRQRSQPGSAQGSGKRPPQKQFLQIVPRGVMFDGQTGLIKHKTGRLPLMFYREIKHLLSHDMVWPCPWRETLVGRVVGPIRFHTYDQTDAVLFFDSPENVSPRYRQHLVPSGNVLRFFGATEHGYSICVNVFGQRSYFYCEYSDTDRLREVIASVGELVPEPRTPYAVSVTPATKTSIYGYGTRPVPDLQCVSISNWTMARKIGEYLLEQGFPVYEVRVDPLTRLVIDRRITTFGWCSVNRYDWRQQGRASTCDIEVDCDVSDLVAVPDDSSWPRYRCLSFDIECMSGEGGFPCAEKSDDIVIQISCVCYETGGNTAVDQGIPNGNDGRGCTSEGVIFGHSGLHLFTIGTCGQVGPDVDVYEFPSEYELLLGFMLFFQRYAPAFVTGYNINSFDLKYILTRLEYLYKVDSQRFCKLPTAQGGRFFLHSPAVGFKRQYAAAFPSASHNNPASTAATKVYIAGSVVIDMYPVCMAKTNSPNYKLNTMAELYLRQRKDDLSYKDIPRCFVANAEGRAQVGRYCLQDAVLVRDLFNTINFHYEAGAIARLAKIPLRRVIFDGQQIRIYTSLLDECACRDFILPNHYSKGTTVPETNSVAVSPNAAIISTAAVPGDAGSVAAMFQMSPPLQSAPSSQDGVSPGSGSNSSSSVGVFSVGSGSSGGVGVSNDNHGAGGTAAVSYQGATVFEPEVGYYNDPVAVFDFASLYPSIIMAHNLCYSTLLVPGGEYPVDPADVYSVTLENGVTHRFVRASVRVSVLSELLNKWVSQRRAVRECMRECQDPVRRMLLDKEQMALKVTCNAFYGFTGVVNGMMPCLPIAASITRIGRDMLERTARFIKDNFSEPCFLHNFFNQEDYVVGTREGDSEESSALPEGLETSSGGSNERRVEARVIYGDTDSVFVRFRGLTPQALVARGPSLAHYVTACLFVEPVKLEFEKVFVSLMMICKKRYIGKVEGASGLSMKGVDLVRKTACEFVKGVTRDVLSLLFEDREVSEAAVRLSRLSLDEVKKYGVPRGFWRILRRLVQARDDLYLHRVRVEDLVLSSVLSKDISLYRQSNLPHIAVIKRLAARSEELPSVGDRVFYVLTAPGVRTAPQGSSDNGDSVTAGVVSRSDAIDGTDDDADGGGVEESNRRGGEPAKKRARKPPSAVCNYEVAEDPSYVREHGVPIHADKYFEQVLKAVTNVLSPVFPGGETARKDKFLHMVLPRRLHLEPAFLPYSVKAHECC
HSV polymerase, sequence (P04293 whole entry): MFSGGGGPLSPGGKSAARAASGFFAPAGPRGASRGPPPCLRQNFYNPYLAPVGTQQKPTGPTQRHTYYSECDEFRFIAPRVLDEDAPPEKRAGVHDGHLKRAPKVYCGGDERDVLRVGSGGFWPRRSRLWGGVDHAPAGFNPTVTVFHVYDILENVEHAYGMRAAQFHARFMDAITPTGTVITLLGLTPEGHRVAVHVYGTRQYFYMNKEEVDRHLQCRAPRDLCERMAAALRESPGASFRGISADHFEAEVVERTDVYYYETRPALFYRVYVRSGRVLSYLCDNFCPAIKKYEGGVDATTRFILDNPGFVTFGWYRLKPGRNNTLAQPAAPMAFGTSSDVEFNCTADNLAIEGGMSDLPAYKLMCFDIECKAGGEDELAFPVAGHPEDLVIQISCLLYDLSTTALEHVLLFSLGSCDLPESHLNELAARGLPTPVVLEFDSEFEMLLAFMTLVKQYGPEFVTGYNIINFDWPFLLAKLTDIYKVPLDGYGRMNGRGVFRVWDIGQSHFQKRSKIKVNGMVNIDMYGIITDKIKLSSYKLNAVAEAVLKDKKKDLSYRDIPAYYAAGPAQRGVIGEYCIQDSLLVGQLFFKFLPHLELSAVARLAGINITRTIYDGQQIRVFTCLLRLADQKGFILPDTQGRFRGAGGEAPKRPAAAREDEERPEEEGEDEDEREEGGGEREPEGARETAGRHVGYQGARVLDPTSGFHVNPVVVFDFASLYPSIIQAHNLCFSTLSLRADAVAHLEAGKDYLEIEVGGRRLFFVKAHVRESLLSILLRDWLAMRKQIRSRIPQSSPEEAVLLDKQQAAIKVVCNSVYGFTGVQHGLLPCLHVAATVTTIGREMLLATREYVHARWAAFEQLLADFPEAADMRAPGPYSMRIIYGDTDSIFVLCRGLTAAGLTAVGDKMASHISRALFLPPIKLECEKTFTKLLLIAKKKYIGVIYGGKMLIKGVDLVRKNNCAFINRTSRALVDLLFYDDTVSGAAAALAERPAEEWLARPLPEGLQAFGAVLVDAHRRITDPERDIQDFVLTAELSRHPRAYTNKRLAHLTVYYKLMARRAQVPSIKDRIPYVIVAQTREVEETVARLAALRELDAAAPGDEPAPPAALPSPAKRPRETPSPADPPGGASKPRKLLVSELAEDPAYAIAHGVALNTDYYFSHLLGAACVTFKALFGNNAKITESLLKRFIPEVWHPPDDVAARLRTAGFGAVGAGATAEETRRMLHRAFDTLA
VZV polymerase, sequence (P09252 whole entry): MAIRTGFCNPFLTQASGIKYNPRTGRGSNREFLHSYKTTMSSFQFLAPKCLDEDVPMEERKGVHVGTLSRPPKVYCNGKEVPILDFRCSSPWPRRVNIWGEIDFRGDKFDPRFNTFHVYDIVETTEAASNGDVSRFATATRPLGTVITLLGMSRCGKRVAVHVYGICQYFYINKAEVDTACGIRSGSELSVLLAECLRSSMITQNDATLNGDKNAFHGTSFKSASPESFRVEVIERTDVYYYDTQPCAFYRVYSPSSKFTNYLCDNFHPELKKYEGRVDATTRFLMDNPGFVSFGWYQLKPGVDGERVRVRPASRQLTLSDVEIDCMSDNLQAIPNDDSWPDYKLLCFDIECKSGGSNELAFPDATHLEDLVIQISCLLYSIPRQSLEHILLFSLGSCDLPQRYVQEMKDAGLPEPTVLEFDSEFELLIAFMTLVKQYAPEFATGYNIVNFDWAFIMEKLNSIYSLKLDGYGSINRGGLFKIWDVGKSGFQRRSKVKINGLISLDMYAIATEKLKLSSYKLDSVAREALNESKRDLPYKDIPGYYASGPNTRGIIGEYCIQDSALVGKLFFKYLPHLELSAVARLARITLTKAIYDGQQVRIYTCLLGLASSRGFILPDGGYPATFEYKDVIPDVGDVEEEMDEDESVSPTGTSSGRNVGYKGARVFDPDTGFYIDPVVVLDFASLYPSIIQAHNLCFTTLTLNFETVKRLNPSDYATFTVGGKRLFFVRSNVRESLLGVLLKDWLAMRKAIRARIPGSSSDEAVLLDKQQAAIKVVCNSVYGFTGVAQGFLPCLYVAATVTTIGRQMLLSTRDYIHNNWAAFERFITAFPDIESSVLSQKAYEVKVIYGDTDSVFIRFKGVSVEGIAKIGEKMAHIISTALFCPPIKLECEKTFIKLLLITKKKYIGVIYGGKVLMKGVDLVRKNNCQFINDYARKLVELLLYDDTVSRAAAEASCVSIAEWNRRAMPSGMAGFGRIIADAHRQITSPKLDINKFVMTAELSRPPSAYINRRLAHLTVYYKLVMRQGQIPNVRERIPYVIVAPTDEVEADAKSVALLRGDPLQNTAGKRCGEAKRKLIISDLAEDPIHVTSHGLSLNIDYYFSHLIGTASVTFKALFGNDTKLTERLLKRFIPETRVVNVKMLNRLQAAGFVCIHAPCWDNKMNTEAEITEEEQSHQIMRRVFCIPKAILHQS

A word on the IC50: it is the concentration that gives 50% inhibition. Lower therefore signals inhibition by little substance. In the case of `Cn1cc(C(=O)NCc2ccc(Cl)cc2)c(=O)c2cc(CCCO)cc(OCCO)c21` [Example 4], the values for the IC50 against HCMV polymerase (setting [1]), on HSV polymerase and on VZV polymerase were 600 nM, 1000 nM and 1200 nM, respectively.

`O=C(NCc1ccc(Cl)cc1)c1cn(CCN2CCOCC2)c2ccc(C=CCO)cc2c1=O` [Example 7, N-(4-Chlorobenzyl)-6-(3-hydroxy-1-propenyl)-1-[2-(4-morpholinyl)ethyl]-4-oxo-1,4-dihydro 3-quinolinecarboxamide]: the IC50 worked out at 1000 nM against HCMV polymerase, 1100 nM on HSV polymerase and 770 nM on VZV polymerase. Consider `CCN(CC)CCn1cc(C(=O)NCc2ccc(Cl)cc2)c(=O)c2cc(C#CCO)ccc21` [Example 12, N-(4-Chlorobenzyl)-1-[2-(diethylamino)ethyl]-6-(3-hydroxy-1-propynyl)-4-oxo-1,4-dihydro-3-quinolinecarboxamide], for which the IC50 came out at 2000 nM against HCMV polymerase (setting [1]), 3000 nM against HSV polymerase and 1900 nM at VZV polymerase.

Take `O=C(NCc1ccc(Cl)cc1)c1cn(CCN2CCCCC2)c2ccc(C#CCO)cc2c1=O` [Example 14, N-(4-Chlorobenzyl)-6-(3-hydroxy-1-propynyl)-1-[2-(1-piperidinyl)ethyl]-4-oxo-1,4-dihydro-3-quinolinecarboxamide]: the IC50 on HCMV polymerase was determined as 1300 nM; at HSV polymerase it was 1200 nM; against VZV polymerase, 1100 nM. As to `CC(C)N(CCn1cc(C(=O)NCc2ccc(Cl)cc2)c(=O)c2cc(C#CCO)ccc21)C(C)C` [Example 17, N-(4-Chlorobenzyl)-1-[2-(diisopropylamino)ethyl]-6-(3-hydroxy-1-propynyl)-4-oxo-1,4-dihydro-3-quinolinecarboxamide], the results for the IC50 on HCMV polymerase (setting [1]), against HSV polymerase and on VZV polymerase were 800 nM, 2000 nM and 1100 nM, respectively. With `O=C(NCc1ccc(Cl)cc1)c1cn(C2CC2)c2ccc(C#CCO)cc2c1=O` [Example 25, N-(4-Chlorobenzyl)-1-cyclopropyl-6-(3-hydroxy-1-propynyl)-4-oxo-1,4-dihydro-3-quinolinecarboxamide], the IC50 at HCMV polymerase (setting [1]) was 1600 nM; at HSV polymerase, 1600 nM; against VZV polymerase, 1500 nM.

For the compound `O=C(NCc1ccc(Cl)cc1)c1cn(C2CC2)c2ccc(CCCO)cc2c1=O` [Example 26, N-(4-Chlorobenzyl)-1-cyclopropyl-6-(3-hydroxypropyl)-4-oxo-1,4-dihydro-3-quinolinecarboxamide], the IC50 on HCMV polymerase (setting [1]) came to 530 nM; against HSV polymerase, 780 nM; against VZV polymerase it was 490 nM. The corresponding values for `Cn1cc(C(=O)NCc2ccc(Cl)cc2)c(=O)c2cc(C#CCO)ccc21` [Example 31, N-(4-Chlorobenzyl)-6-(3-hydroxy-1-propynyl)-1-methyl-4-oxo-1,4-dihydro-3-quinolinecarboxamide] are 1100 nM, 1300 nM and 1000 nM. The corresponding values for `O=C(NCc1ccc(Cl)cc1)c1cn(CCOCCO)c2ccc(C#CCO)cc2c1=O` [Example 55, N-(4-Chlorobenzyl)-1-[2-(2-hydroxyethoxy)ethyl]-6-(3-hydroxy-1-propynyl)-4-oxo-1,4-dihydro-3-quinolinecarboxamide] are 2300 nM, 2400 nM and 1400 nM. At HCMV polymerase (setting [1]), `O=C(NCc1ccc(Cl)cc1)c1cn(COc2ccc(Cl)cc2)c2ccc(CN3CCOCC3)cc2c1=O` [Example 104, N-(4-Chlorobenzyl)-1-[(4-chlorophenoxy)methyl]-6-(4-morpholinylmethyl)-4-oxo-1,4-dihydro-3-quinolinecarboxamide] registered an IC50 of 1600 nM. Turning to `COCCOCn1cc(C(=O)NCc2ccc(Cl)cc2)c(=O)c2cc(CN3CCOCC3)ccc21` [Example 105, N-(4-Chlorobenzyl)-1-[(2-methoxyethoxy)methyl]-6-(4-morpholinylmethyl)-4-oxo-1,4-dihydro-3-quinolinecarboxamide], inhibition at HCMV polymerase (setting [1]) was half-maximal at 1300 nM (IC50). For the compound `O=C(OCCOCn1cc(C(=O)NCc2ccc(Cl)cc2)c(=O)c2cc(CN3CCOCC3)ccc21)c1ccccc1` [Example 106, 2-{[3-{[(4-Chlorobenzyl)amino]carbonyl}-6-(4-morpholinylmethyl)-4-oxo-1(4H)-quinolinyl]methoxy}ethyl benzoate], the IC50 on HCMV polymerase (setting [1]) worked out at 3100 nM.

For `O=C(NCc1ccc(Cl)cc1)c1cn(COCCO)c2ccc(CN3CCOCC3)cc2c1=O` [Example 107], half-maximal inhibition on HCMV polymerase (setting [1]) (IC50) required 840 nM. Same read-out and setting: for `O=C(NCc1ccc(Cl)cc1)c1cn(C2CCOCC2)c2ccc(CN3CCOCC3)cc2c1=O` [Example 108, N-(4-Chlorobenzyl)-6-(4-morpholinylmethyl)-4-oxo-1-tetrahydro-2H-pyran-4-yl-1,4-dihydro-3-quinolinecarboxamide] the value was 820 nM; for `CN1CCC(n2cc(C(=O)NCc3ccc(Cl)cc3)c(=O)c3cc(CN4CCOCC4)ccc32)CC1` [Example 109, N-(4-Chlorobenzyl)-1-(1-methyl-4-piperidinyl)-6-(4-morpholinylmethyl)-4-oxo-1,4-dihydro-3-quinolinecarboxamide], 480 nM; for `O=C(NCc1ccc(Cl)cc1)c1cn(C2CCNCC2)c2ccc(CN3CCOCC3)cc2c1=O` [Example 110, N-(4-Chlorobenzyl)-6-(4-morpholinylmethyl)-4-oxo-1-(4-piperidinyl)-1,4-dihydro-3-quinolinecarboxamide], 670 nM. At HCMV polymerase (setting [1]), `O=C(NCc1ccc(Cl)cc1)c1cn(C2CCS(=O)(=O)CC2)c2ccc(CN3CCOCC3)cc2c1=O` [Example 111, N-(4-Chlorobenzyl)-1-(1,1-dioxohexahydro-thiopyran-4-yl)-6-(4-morpholinylmethyl)-4-oxo-1,4-dihydro-3-quinolinecarboxamide] registered an IC50 of 730 nM. Compound `O=C(NCc1ccc(Cl)cc1)c1cn(N2CCOCC2)c2ccc(CN3CCOCC3)cc2c1=O` [Example 112, N-(4-Chlorobenzyl)-1-(4-morpholinyl)-6-(4-morpholinylmethyl)-4-oxo-1,4-dihydro-3-quinolinecarboxamide] showed an IC50 against HCMV polymerase (setting [1]) of 420 nM.

The compound `CN1CCN(n2cc(C(=O)NCc3ccc(Cl)cc3)c(=O)c3cc(CN4CCOCC4)ccc32)CC1` [Example 113, N-(4Chlorobenzyl)-1-(4methyl-1-piperazinyl)-6-(4-morpholinylmethyl)-4-oxo-1,4-dihydro-3-quinolinecarboxamide] showed an IC50 at HCMV polymerase (setting [1]) of 640 nM. Same read-out and setting: then `O=C(NCc1ccc(Cl)cc1)c1cn(N2CCCCC2)c2ccc(CN3CCOCC3)cc2c1=O` [Example 114, N-(4-Chlorobenzyl)-6-(4-morpholinylmethyl)-4-oxo-1-(1-piperidinyl)-1,4-dihydro-3-quinolinecarboxamide], with 880 nM; and `O=C(NCc1ccc(Cl)cc1)c1cn(N2CCCC2)c2ccc(CN3CCOCC3)cc2c1=O` [Example 115, N-(4-Chlorobenzyl)-6-(4-morpholinylmethyl)-4-oxo-1-(1-pyrrolidinyl)-1,4-dihydro-3-quinolinecarboxamide], with 620 nM; and `COC[C@H]1CCCN1n1cc(C(=O)NCc2ccc(Cl)cc2)c(=O)c2cc(CN3CCOCC3)ccc21` [Example 116, N-(4-Chlorobenzyl)-1-[(2R)-2-(methoxymethyl)pyrrolidinyl]-6-(4-morpholinylmethyl)-4-oxo-1,4-dihydro-3-quinolinecarboxamide], with 14000 nM. Take `CN(C)n1cc(C(=O)NCc2ccc(Cl)cc2)c(=O)c2cc(CN3CCOCC3)ccc21` [Example 117, N-(4-Chlorobenzyl)-1-(dimethylamino)-6-(4-morpholinylmethyl)-4-oxo-1,4-dihydro-3-quinolinecarboxamide]: the midpoint of inhibition against HCMV polymerase (setting [1]), the IC50, lay at 1500 nM. Same read-out and setting: for `Nn1cc(C(=O)NCc2ccc(Cl)cc2)c(=O)c2cc(C#CCO)ccc21` [Example 118, 1-Amino-N-(4-chlorobenzyl)-6(3-hydroxy-1-propynyl)-4-oxo-1,4-dihydro-3-quinolinecarboxamide] the value was 1100 nM; for `Nn1cc(C(=O)NCc2ccc(Cl)cc2)c(=O)c2cc(CCCO)ccc21` [Example 119, 1-Amino-N-(4-chlorobenzyl)-6-(3-hydroxypropyl)-4-oxo-1,4-dihydro-3-quinolinecarboxamide], 500 nM.

On HCMV polymerase (setting [1]), `CN(C)n1cc(C(=O)NCc2ccc(Cl)cc2)c(=O)c2cc(C#CCO)ccc21` [Example 120, N-(4-Chlorobenzyl)-1-(dimethylamino)-6-(3-hydroxy-1-propynyl)-4-oxo-1,4-dihydro-3-quinolinecarboxamide] registered an IC50 of 2500 nM. On the same count and under the same terms, for `CN(C)n1cc(C(=O)NCc2ccc(Cl)cc2)c(=O)c2ccccc21` [Example 121, N-(4-Chlorobenzyl)-1-(dimethylamino)-4-oxo-1,4-dihydro-3-quinolinecarboxamide] the value was 3900 nM. Still for that read-out and setting: then `C=CCOn1cc(C(=O)NCc2ccc(Cl)cc2)c(=O)c2ccccc21` [Example 122, 1-(Allyloxy)-N-(4-chlorobenzyl)-4-oxo-1,4-dihydro-3-quinolinecarboxamide], with 2800 nM. Same read-out and setting: then `COn1cc(C(=O)NCc2ccc(Cl)cc2)c(=O)c2ccccc21` [Example 123, N-(4-Chlorobenzyl)-1-methoxy-4-oxo-1,4-dihydro-3-quinolinecarboxamide], with 8200 nM; and `O=C(NCc1ccc(Br)cc1)c1cn(N2CCOCC2)c2ccc(CN3CCOCC3)cc2c1=O` [Example 124, N-(4-Bromobenzy)-1-(4-morpholinyl)-6-(4-morpholinylmethyl)-4-oxo-1,4-dihydro-3-quinolinecarboxamide], with 1200 nM.

In turn, `O=C(NCc1ccc(F)cc1)c1cn(N2CCOCC2)c2ccc(CN3CCOCC3)cc2c1=O` [Example 125, N-(4-Fluorobenzyl)-1-(4-morpholinyl)-6-(4-morpholinylmethyl)-4-oxo-1,4-dihydro-3-quinolinecarboxamide] showed an IC50 at HCMV polymerase (setting [1]) of 1100 nM.
